In assay [1] the target is FKBP (Homo sapiens, UniProt P62942). Kind of assay: Ki test procedure: inhibition of peptidyl-prolyl isomerase (rotamase) activity, chymotrypsin-coupled assay. The class given is biochemical. The note with it: apparent Ki. Here is the method:
The inhibition of this reaction caused by the addition of different concentrations of inhibitor is determined, and the data is analyzed as a change in first-order rate constant as a function of inhibitor concentration to yield the apparent Ki values.
In a plastic cuvette are added […] of ice cold assay buffer (25 mM HEPES, pH 7.8, 100 mM NaCl), […] of FKBP (2.5 mM in 10 mM Tris-Cl pH 7.5, 100 mM NaCl, 1 mM dithiothreitol), […] of chymotrypsin (50 mg/ml in 1 mM HCl) and […] of test compound at various concentrations in dimethyl sulfoxide.

Assay [2] has as its system chick dorsal root ganglia. Kind of assay: Chick dorsal root ganglion cultures and neurite outgrowth. The note with it: read-out: ED50, neurite outgrowth. Type of assay: cell-based. The source says:
Forty-eight hours later, the number of neurite with a length greater than one DRG explant was quantitated. The number of neurites expressed in untreated DRG's was subtracted from the neurite number of Example 17—treated samples to yield Example 17—dependent specific neurite outgrowth.
Forty-eight hours later, the number of neurite with a length greater than one DRG explant was quantitated. The number of neurites expressed in untreated DRG's was subtracted form the neurite number of Example 17—treated samples to yield Example 17—dependent specific neurite outgrowth. Quantitative dose-dependent neurite outgrowth elicited by Example 17 is presented.
Dorsal root ganglia were dissected from chick embryos of ten day gestation. Whole ganglion explants were cultured on thin layer Matrigel-coated 12 well plates with Liebovitz L15 plus high glucose media supplemented with 2 mM glutamine and 10% fetal calf serum, and also containing 10 μM cytosine β-D arabinofuranoside (Ara C) at 37° C. in an environment containing 5% CO2. Twenty-four hours later, the DRGs were treated with various concentrations of nerve growth factor, immunophilin ligands or combinations of NFG plus drugs. Forty-eight hours after drug treatment, the ganglia were visualized under phase contrast or Hoffman Modulation contrast with a Zeiss Axiovert inverted microscope. Photomicrographs of the explants were made, and neurite outgrowth was quantitated. Neurites longer than the DRG diameter were counted as positive, with total number of neurites quantitated per each experimental condition. Three to four DRGs are cultured per well, and each treatment was performed in duplicate.

[3] abbreviates: chick DRG explants, 48 h after drug treatment.

Drawing on patent US6500959B1, “Pyrrolidine derivatives and processes for preparing same” (GPI NIL Holdings, Inc., priority 1995, dated 2002), this text covers Ki and EC50 for 26 compounds.

Structures are written as SMILES. Like-named read-outs stand apart in the source and are kept apart here.

FKBP, sequence (P62942 whole entry): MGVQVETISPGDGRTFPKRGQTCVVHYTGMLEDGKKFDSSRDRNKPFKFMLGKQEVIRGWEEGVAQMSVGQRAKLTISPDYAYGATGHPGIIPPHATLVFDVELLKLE

Turning to `CCC(C)(C)C(=O)C(=O)N1CCC[C@H]1C(=O)OC/C=C/c1ccccc1` [Example 2, 3-phenyl-1-prop-2-(E)-enyl (2S)-1-(3,3-dimethyl-1,2-dioxopentyl)-2-pyrrolidinecarboxylate], the Ki in assay [1] came out at 125 nM. In addition, in assay [2] (Gallus gallus, 48 h), the EC50 came out at 105 nM.

In the case of `CCC(C)(C)C(=O)C(=O)N1CCC[C@H]1C(=O)OCCCc1cc(OC)c(OC)c(OC)c1` [Example 3, 3-(3,4,5-trimethoxyphenyl)-1-propyl (2S)-1-(3,3-dimethyl-1,2-dioxopentyl)-2-pyrrolidine-carboxylate], the EC50 in assay [2] (Gallus gallus, 48 h) came out at 149 nM.

As for `CCC(C)(C)C(=O)C(=O)N1CCC[C@H]1C(=O)OC/C=C/c1cc(OC)c(OC)c(OC)c1` [Example 4, 3-(3,4,5-trimethoxyphenyl)-1-prop-2-(E)-enyl (2S)-1-(3,3-dimethyl-1,2-dioxopentyl)-2-pyrrolidine carboxylate], the Ki in assay [1] stood at 65 nM. For the same compound, the EC50 in assay [2] (Gallus gallus, 48 h) was determined as 190 nM.

`CCC(C)(C)C(=O)C(=O)N1CCC[C@H]1C(=O)OCCCc1ccc2c(c1)OCO2` [Example 5]: the Ki in assay [1] was determined as 170 nM. Further, the EC50 in assay [2] (setting [3]) came out at 10 nM.

Regarding `CCC(C)(C)C(=O)C(=O)N1CCC[C@H]1C(=O)OC/C=C/c1ccc2c(c1)OCO2` [Example 6, 3-(4,5-methylenedioxyphenyl)-1-prop-2-(E)-enyl (2S)-1-(3,3-dimethyl-1,2-dioxopentyl)-2-pyrrolidinecarboxylate], the Ki in assay [1] was found to be 160 nM. In addition, in assay [2] (Gallus gallus, 48 h), the EC50 was found to be 75 nM.

As to `CCC(C)(C)C(=O)C(=O)N1CCC[C@H]1C(=O)OC/C=C/C1CCCCC1` [Example 8, 3-cyclohexyl-1-prop-2-(E)-enyl (2S)-1-(3,3-dimethyl-1,2-dioxopentyl)-2-pyrrolidinecarboxylate], in assay [1], the Ki was found to be 600 nM.

Take `O=C(C(=O)N1CCC[C@H]1C(=O)OCCCc1ccccc1)c1ccco1` [Example 10, 3-phenyl-1-propyl (2S)-1-(1,2-dioxo-2-[2-furanyl])ethyl-2-pyrrolidinecarboxylate]: the Ki in assay [1] was 4000 nM. Also, in assay [2] (Gallus gallus, 48 h), the EC50 is 0.46 nM.

Regarding `O=C(C(=O)N1CCC[C@H]1C(=O)OCCCc1ccccc1)c1cccs1` [Example 11, 3-phenyl-1-propyl (2S)-1-(1,2-dioxo-2-[2-thienyl])ethyl-2-pyrrolidinecarboxylate], in assay [1], the Ki was found to be 92 nM. Also, the EC50 in assay [2] (Gallus gallus, 48 h) was 0.015 nM.

As for `O=C(C(=O)N1CCC[C@H]1C(=O)OCCCc1ccccc1)c1nccs1` [Example 12, 3-phenyl-1-propyl (2S)-1-(1,2-dioxo-2-[2-thiazolyl])ethyl-2-pyrrolidinecarboxylate], the Ki in assay [1] is 100 nM.

Take `O=C(C(=O)N1CCC[C@H]1C(=O)OCCCc1ccccc1)c1ccccc1` [Example 13, 3-phenyl-1-propyl (2S)-1-(1,2-dioxo-2-phenyl)ethyl-2-pyrrolidinecarboxylate]: the Ki in assay [1] was 1970 nM.

With `CCC(C)(C)C(=O)C(=O)N1CCC[C@H]1C(=O)OCCCc1cc(OC)ccc1OC` [Example 14, 3-(2,5-dimethoxyphenyl)-1-propyl (2S)-1-(3,3-dimethyl-1,2-dioxopentyl)-2-pyrrolidine-carboxylate], in assay [2] (Gallus gallus, 48 h), the EC50 was found to be 2 nM.

Take `CCC(C)(C)C(=O)C(=O)N1CCC[C@H]1C(=O)OC/C=C/c1cc(OC)ccc1OC` [Example 15, 3-(2,5-dimethoxyphenyl)-1-prop-2-(E)-enyl (2S)-1-(3,3-dimethyl-1,2-dioxopentyl)-2-pyrrolidine-carboxylate]: the Ki in assay [1] is 450 nM. For the same compound, the EC50 in assay [2] (Gallus gallus, 48 h) came out at 0.8 nM.

For `CCC(C)(C)C(=O)C(=O)N1CCC[C@H]1C(=O)OCCc1cc(OC)c(OC)c(OC)c1` [Example 16, 2-(3,4,5-trimethoxyphenyl)-1-ethyl (2S)-1-(3,3-dimethyl-1,2-dioxopentyl)-2-pyrrolidine-carboxylate], the EC50 in assay [2] (Gallus gallus, 48 h) turned out to be 0.015 nM.

For the compound `CCC(C)(C)C(=O)C(=O)N1CCC[C@H]1C(=O)OCCCc1ccccn1` [Example 18, 3-(2-Pyridyl)-1-propyl (2S)-1-(3,3-dimethyl-1,2-dioxopentyl)-2-pyrrolidinecarboxylate], the EC50 in assay [2] (Gallus gallus, 48 h) is 30 nM.

In the case of `CCC(C)(C)C(=O)C(=O)N1CCC[C@H]1C(=O)OCCCc1ccncc1` [Example 19, 3-(4-Pyridyl)-1-propyl (2S)-1-(3,3-dimethyl-1,2-dioxopentyl)-2-pyrrolidinecarboxylate], the EC50 in assay [2] (Gallus gallus, 48 h) is 6 nM.

For the compound `O=C(C(=O)N1CCC[C@H]1C(=O)OC(CCc1ccccc1)c1ccccc1)C1CCCCC1` (stereo partly drawn) [Example 20, 3-phenyl-1-phenyl-1-propyl (2S)-1-(2-cyclohexyl-1,2-dioxoethyl)-2-pyrrolidinecarboxylate], in assay [1], the Ki was found to be 82 nM. Also, in assay [2] (setting [3]), the EC50 was 0.13 nM.

`CC(C)(C)C(=O)C(=O)N1CCC[C@H]1C(=O)OCCCc1ccccc1` [Example 21, 3-phenyl-1-propyl (2S)-1-(2-tert-butyl-1,2-dioxoethyl)-2-pyrrolidinecarboxylate]: the EC50 in assay [2] (Gallus gallus, 48 h) came to 0.025 nM.

Regarding `O=C(CCC1CCCCC1)C(=O)N1CCC[C@H]1C(=O)OCCCc1ccccc1` [Example 22, 3-phenyl-1-propyl (2S)-1-(2-cyclohexyl-ethyl-1,2-dioxoethyl)-2-pyrrolidinecarboxylate], the EC50 in assay [2] (Gallus gallus, 48 h) was determined as 0.66 nM.

As to `O=C(CCC1CCCCC1)C(=O)N1CCC[C@H]1C(=O)OCCCc1cccnc1` [Example 23, 3-(3-pyridyl)-1-propyl (2S)-1-(2-cyclohexylethyl-1,2-dioxoethyl)-2-pyrrolidinecarboxylate], the EC50 in assay [2] (Gallus gallus, 48 h) amounted to 1100 nM.

Consider `CC(C)(C)C(=O)C(=O)N1CCC[C@H]1C(=O)OCCCc1cccnc1` [Example 24, 3-(3-pyridyl)-1-propyl (2S)-1-(2-tert-butyl-1,2-dioxoethyl)-2-pyrrolidinecarboxylate], for which, in assay [2] (Gallus gallus, 48 h), the EC50 was 0.014 nM.

Take `CCC(C)(C)C(=O)C(=O)N1CCC[C@H]1C(=O)OCCC(c1ccccc1)c1ccccc1` [Example 25, 3,3-diphenyl-1-propyl (2S)-1-(3,3-dimethyl-1,2-dioxopentyl)-2-pyrrolidinecarboxylate]: the EC50 in assay [2] (Gallus gallus, 48 h) stood at 0.5 nM.

For the compound `O=C(C(=O)N1CCC[C@H]1C(=O)OCCCc1cccnc1)C1CCCCC1` [Example 26, 3-(3-pyridyl)-1-propyl (2S)-1-(2-cyclohexyl-1,2-dioxoethyl)-2-pyrrolidinecarboxylate], the EC50 in assay [2] (Gallus gallus, 48 h) stood at 2 nM.

For the compound `O=C(C(=O)N1CCC[C@H]1C(=O)OCCCc1cccnc1)c1cccs1` [Example 27, 3-(3-Pyridyl)-1-propyl (2S)-N-([2-thienyl]glyoxyl)pyrrolidinecarboxylate], the Ki in assay [1] was determined as 1000 nM. The EC50 in assay [2] (Gallus gallus, 48 h) is 500 nM.

With `CC(C)(C)C(=O)C(=O)N1CCC[C@H]1C(=O)OCCC(c1ccccc1)c1ccccc1` [Example 28, 3,3-Diphenyl-1-propyl (2S)-1-(3,3-dimethyl-1,2-dioxobutyl)-2-pyrrolidinecarboxylate], the EC50 in assay [2] (Gallus gallus, 48 h) stood at 0.5 nM.

On to `O=C(C(=O)N1CCC[C@H]1C(=O)OCCC(c1ccccc1)c1ccccc1)C1CCCCC1` [Example 29, 3,3-Diphenyl-1-propyl (2S)-1-cyclohexyl glyoxyl-2-pyrrolidinecarboxylate], for which the Ki in assay [1] came out at 20 nM. In addition, the EC50 in assay [2] (Gallus gallus, 48 h) amounted to 10 nM.

For `O=C(C(=O)N1CCC[C@H]1C(=O)OCCC(c1ccccc1)c1ccccc1)c1cccs1` [Example 30, 3,3-Diphenyl-1-propyl (2S)-1-(2-thienyl) glyoxyl-2-pyrrolidinecarboxylate], the Ki in assay [1] is 150 nM. Further, the EC50 in assay [2] (Gallus gallus, 48 h) came out at 100 nM.
